In patent publication US10933063B2 (priority 2017, dated 2021) one finds IC50 data, which are given here for 31 compounds.

For one experiment, the target named is T1, BTK (Homo sapiens (Human), UniProt Q06187). Kind of experiment: biochemical.
T1 sequence (Q06187 whole entry, looked up, species assumed): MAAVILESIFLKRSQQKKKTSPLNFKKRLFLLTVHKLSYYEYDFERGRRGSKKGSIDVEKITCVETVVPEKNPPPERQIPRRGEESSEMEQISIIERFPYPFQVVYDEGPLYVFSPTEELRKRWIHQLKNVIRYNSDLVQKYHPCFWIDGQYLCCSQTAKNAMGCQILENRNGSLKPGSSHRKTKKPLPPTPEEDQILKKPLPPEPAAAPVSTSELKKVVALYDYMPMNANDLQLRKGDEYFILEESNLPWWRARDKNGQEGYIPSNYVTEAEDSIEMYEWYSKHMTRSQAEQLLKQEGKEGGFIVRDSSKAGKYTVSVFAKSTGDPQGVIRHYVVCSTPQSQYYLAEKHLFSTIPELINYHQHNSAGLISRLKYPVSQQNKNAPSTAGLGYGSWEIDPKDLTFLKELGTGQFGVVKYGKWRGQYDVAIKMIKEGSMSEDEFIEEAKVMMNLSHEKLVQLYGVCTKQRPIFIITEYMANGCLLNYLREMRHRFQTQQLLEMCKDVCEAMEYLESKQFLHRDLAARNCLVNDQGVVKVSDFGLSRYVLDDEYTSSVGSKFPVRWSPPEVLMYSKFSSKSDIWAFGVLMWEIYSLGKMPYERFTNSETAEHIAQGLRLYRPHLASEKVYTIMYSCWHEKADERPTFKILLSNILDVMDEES
Conditions: not given
Consider `COc1cccc(Oc2ccc(-c3nc([C@@H]4CCCN4Cc4ccccc4)n4ccncc34)cc2)c1F` [Example 32, (S)-3-(1-benzylpyrrolidin-2-yl)-1-(4-(2-fluoro-3-methoxyphenoxy)phenyl)imidazo[1,5-a]pyrazine], for which the IC50 fell in the range of 1 to 10 µM.

The compound `C=CC(=O)N1CCC[C@@H](c2nc(-c3ccc(Oc4cccc(OC)c4F)cc3)c3c(C)ncc(C)n23)C1` [Example 76, (R)-1-(3-(1-(4-(2-fluoro-3-methoxyphenoxy)phenyl)-5,8-dimethylimidazo[1,5-a]pyrazin-3-yl)piperidin-1-yl)prop-2-en-1-one] came in with an IC50 of 0.01 to 0.1 µM.

Compound `CC#CC(=O)N1CCC[C@H]1c1nc(-c2ccc(COc3cccc(F)c3F)cc2)c2cnccn12` [Example 130, (S)-1-(2-(1-(4-((2,3-difluorophenoxy)methyl)phenyl)imidazo[1,5-a]pyrazin-3-yl)pyrrolidin-1-yl)but-2-yn-1-one] registered an IC50 of 1 to 10 µM.

As to `C=CC(=O)N1CCC[C@H]1c1nc(-c2ccc(OCc3cccc(F)c3F)cc2)c2cnccn12` [Example 124, (S)-1-(2-(1-(4-((2,3-Difluorobenzyl)oxy)phenyl)imidazo[1,5-a]pyrazin-3-yl)pyrrolidin-1-yl)prop-2-en-1-one], the IC50 lay in the range of 0.01 to 0.1 µM.

Turning to `CC#CC(=O)N1CCC[C@@H](c2nc(-c3ccc(Oc4cccc(OC)c4F)cc3)c3cncc(C)n23)C1` [Example 71, (R)-1-(3-(1-(4-(2-fluoro-3-methoxyphenoxy)phenyl)-5-methylimidazo[1,5-a]pyrazin-3-yl)piperidin-1-yl)but-2-yn-1-one], the IC50 lay in the range of 0.1 to 1 µM.

As to `CC#CC(=O)N1CCCC[C@H]1c1nc(-c2ccc(C(=O)Nc3ccccn3)cc2)c2c(C)ncc(C)n12` [Example 189, (S)-4-(3-(1-(but-2-ynoyl)piperidin-2-yl)-5,8-dimethylimidazo[1,5-a]pyrazin-1-yl)-N-(pyridin-2-yl)benzamide], the IC50 lay in the range of 0.1 to 1 µM.

`C=CC(=O)N1CCCC[C@H]1c1nc(-c2ccc(Oc3cccc(F)c3)cc2)c2cnccn12` [Example 45, (S)-1-(2-(1-(4-(3-fluorophenoxy)phenyl)imidazo[1,5-a]pyrazin-3-yl)piperidin-1-yl)prop-2-en-1-one] registered an IC50 of 0.01 to 0.1 µM.

With `CC#CC(=O)N1CCC[C@H]1c1nc(-c2ccc(C(=O)Nc3ccccn3)cc2)c2c(C)ncc(C)n12` [Example 175, (S)-4-(3-(1-(but-2-ynoyl)pyrrolidin-2-yl)-5,8-dimethylimidazo[1,5-a]pyrazin-1-yl)-N-(pyridin-2-yl)benzamide], the IC50 was 0.1 to 1 µM.

As for `C=CC(=O)N1CCCC[C@H]1c1nc(-c2ccc(OCc3cccc(F)c3F)cc2)c2c(C)nccn12` [Example 154, (S)-1-(2-(1-(4-((2,3-difluorobenzyl)oxy)phenyl)-8-methylimidazo[1,5-a]pyrazin-3-yl)piperidin-1-yl)prop-2-en-1-one], the IC50 fell in the range of 0.01 to 0.1 µM.

On to `C=CC(=O)N1CCC[C@H]1c1nc(-c2ccc(OCc3cccc(F)c3)cc2)c2cnccn12` [Example 135, (S)-1-(2-(1-(4-((3-fluorobenzyl)oxy)phenyl)imidazo[1,5-a]pyrazin-3-yl)pyrrolidin-1-yl)prop-2-en-1-one], for which the IC50 is 0.01 to 0.1 µM.

`CC#CC(=O)N1CCCC[C@H]1c1nc(-c2ccc(Oc3cccc(F)c3F)cc2)c2c(C)nccn12` [Example 60, (S)-1-(2-(1-(4-(2,3-difluorophenoxy)phenyl)-8-methylimidazo[1,5-a]pyrazin-3-yl)piperidin-1-yl)but-2-yn-1-one] showed an IC50 of 0.01 to 0.1 µM.

For the compound `CC#CC(=O)N1CCC[C@H]1c1nc(-c2ccc(Oc3cccc(F)c3)cc2)c2cnccn12` [Example 7, (S)-1-(2-(1-(4-(3-fluorophenoxy)phenyl)imidazo[1,5-a]pyrazin-3-yl)pyrrolidin-1-yl)but-2-yn-1-one], the IC50 is 0.01 to 0.1 µM.

`C=CC(=O)N1CCC[C@H]1c1nc(-c2ccc(Oc3ccccc3)c(Cl)c2)c2cnccn12` [Example 26, (S)-1-(2-(1-(3-chloro-4-phenoxyphenyl)imidazo[1,5-a]pyrazin-3-yl)pyrrolidin-1-yl)prop-2-en-1-one]: the IC50 was 0.01 to 0.1 µM.

`C=CC(=O)N1CCCC[C@H]1c1nc(-c2ccc(C(=O)Nc3ccccn3)cc2)c2cncc(C)n12` [Example 186, (S)-4-(3-(1-acryloylpiperidin-2-yl)-5-methylimidazo [1,5-a]pyrazin-1-yl)-N-(pyridin-2-yl)benzamide]: the IC50 fell in the range of 0.1 to 1 µM.

As for `C=CC(=O)N1CCCC[C@H]1c1nc(-c2ccc(C(=O)Nc3ccccn3)cc2)c2cnccn12` [Example 168, (S)-4-(3-(1-acryloylpiperidin-2-yl)imidazo[1,5-a]pyrazin-1-yl)-N-(pyridin-2-yl) benzamide], the IC50 was 0.01 to 0.1 µM.

Compound `CC#CC(=O)N1CC[C@@H](c2nc(-c3ccc(C(=O)Nc4ccccn4)cc3)c3c(C)ncc(OCC)n23)C1` [Example 205, (R)-4-(3-(1-(but-2-ynoyl)pyrrolidin-3-yl)-5-ethoxy-8-methylimidazo[1,5-a]pyrazin-1-yl)-N-(pyridin-2-yl)benzamide] displayed an IC50 of 0.01 to 0.1 µM.

A further experiment concerns the target T1, BTK.
Assay: not given
The following applies: read-out: BTK Inhibition.
In the case of `C=CC(=O)N1CC[C@@H](c2nc(-c3ccc(Oc4cccc(OC)c4F)cc3)c3cncc(OCCOC)n23)C1` [Example 104, (R)-1-(3-(1-(4-(2-fluoro-3-methoxyphenoxy)phenyl)-5-(2-methoxyethoxy)imidazo[1,5-a]pyrazin-3-yl)pyrrolidin-1-yl)prop-2-en-1-one], the IC50 is below 0.01 µM.

For `CC#CC(=O)N1CCC[C@H]1c1nc(-c2ccc(Oc3ccccc3)nc2)c2cnccn12` [Example 15, (S)-1-(2-(1-(6-phenoxypyridin-3-yl)imidazo[1,5-a]pyrazin-3-yl)pyrrolidin-1-yl)but-2-yn-1-one], the IC50 was above 10 µM.

On to `CC#CC(=O)N1CC[C@@H](c2nc(-c3ccc(Oc4cccc(OC)c4F)cc3)c3c(C)nccn23)C1` [Example 92, (R)-1-(3-(1-(4-(2-fluoro-3-methoxyphenoxy)phenyl)-8-methylimidazo[1,5-a]pyrazin-3-yl)pyrrolidin-1-yl)but-2-yn-1-one], for which the IC50 is below 0.01 µM.

As to `C=CC(=O)N1CCCC[C@H]1c1nc(-c2ccc(Oc3cccc(C)c3)cc2)c2c(C)nccn12` [Example 40, (S)-1-(2-(8-methyl-1-(4-(m-tolyloxy)phenyl)imidazo[1,5-a]pyrazin-3-yl)piperidin-1-yl)prop-2-en-1-one], the IC50 is below 0.01 µM.

For `CC#CC(=O)N1CC[C@@H](c2nc(-c3ccc(Oc4cccc(OC)c4F)cc3)c3cncc(OCC)n23)C1` [Example 93, (R)-1-(3-(5-ethoxy-1-(4-(2-fluoro-3-methoxyphenoxy)phenyl)imidazo[1,5-a]pyrazin-3-yl)pyrrolidin-1-yl)but-2-yn-1-one], the IC50 is below 0.01 µM.

`CC#CC(=O)N1CCC[C@H]1c1nc(-c2ccc(Oc3cccc(OC)c3F)cc2)c2c(C(N)=O)nccn12` [Example 38, (S)-3-(1-(but-2-ynoyl)pyrrolidin-2-yl)-1-(4-(2-fluoro-3-methoxyphenoxy)phenyl)imidazo[1,5-a]pyrazine-8-carboxamide]: the IC50 is above 10 µM.

In the case of `CC#CC(=O)N1CC[C@@H](c2nc(-c3ccc(Oc4cccc(OC)c4F)cc3)c3c(C(C)C)nccn23)C1` [Example 112, (R)-1-(3-(1-(4-(2-fluoro-3-methoxyphenoxy)phenyl)-8-isopropylimidazo[1,5-a]pyrazin-3-yl)pyrrolidin-1-yl)but-2-yn-1-one], the IC50 was above 10 µM.

Turning to `C=CC(=O)N1CC[C@@H](c2nc(-c3ccc(C(=O)Nc4ccccn4)cc3)c3cncc(OCC)n23)C1` [Example 194, (R)-4-(3-(1-acryloylpyrrolidin-3-yl)-5-ethoxyimidazo [1,5-a]pyrazin-1-yl)-N-(pyridin-2-yl)benzamide], the IC50 is below 0.01 µM.

In the case of `CN(C)C(=O)N1CCCC[C@H]1c1nc(-c2ccc(C(=O)Nc3ccccn3)cc2)c2c(C(F)(F)F)nccn12` [Example 215, (S)-N,N-dimethyl-2-(1-(4-(pyridin-2-ylcarbamoyl)phenyl)-8-(trifluoromethyl)imidazo [1,5-a]pyrazin-3-yl) piperidine-1-carboxamide], the IC50 was above 10 µM.

Regarding `C=CC(=O)N1CCCC[C@H]1c1nc(-c2ccc(Oc3cccc(OC)c3)cc2)c2c(C)nccn12` [Example 48, (S)-1-(2-(1-(4-(3-methoxyphenoxy)phenyl)-8-methylimidazo[1,5-a]pyrazin-3-yl)piperidin-1-yl)prop-2-en-1-one], the IC50 was below 0.01 µM.

Regarding `C=CC(=O)N1CCC[C@H]1c1nc(-c2ccc(Oc3cccc(Cl)c3F)cc2)c2cnccn12` [Example 22, (S)-1-(2-(1-(4-(3-chloro-2-fluorophenoxy)phenyl)imidazo[1,5-a]pyrazin-3-yl)pyrrolidin-1-yl)prop-2-en-1-one], the IC50 was below 0.01 µM.

In the case of `C=CC(=O)N1CCC[C@H]1c1nc(-c2ccc(Oc3cccc(Cl)c3)cc2)c2cnccn12` [Example 28, (S)-1-(2-(1-(4-(3-chlorophenoxy)phenyl)imidazo[1,5-a]pyrazin-3-yl)pyrrolidin-1-yl)prop-2-en-1-one], the IC50 is below 0.01 µM.

Consider `CCCCOc1cncc2c(-c3ccc(Oc4cccc(OC)c4F)cc3)nc([C@@H]3CCN(Cc4ccccc4)C3)n12` [Example 102, (R)-3-(1-benzylpyrrolidin-3-yl)-5-butoxy-1-(4-(2-fluoro-3-methoxyphenoxy)phenyl)imidazo[1,5-a]pyrazine], for which the IC50 was above 10 µM.

For the compound `C=CC(=O)N1CCCC[C@H]1c1nc(-c2ccc(C(=O)Nc3ccccn3)cc2)c2c(C)nccn12` [Example 170, (S)-4-(3-(1-acryloylpiperidin-2-yl)-8-methylimidazo [1,5-a]pyrazin-1-yl)-N-(pyridin-2-yl)benzamide], the IC50 is below 0.01 µM.

Turning to `C=CC(=O)N1CC[C@@H](c2nc(-c3ccc(Oc4cccc(OC)c4F)cc3)c3cncc(OCCC)n23)C1` [Example 95, (R)-1-(3-(1-(4-(2-fluoro-3-methoxyphenoxy)phenyl)-5-propoxyimidazo[1,5-a]pyrazin-3-yl)pyrrolidin-1-yl)prop-2-en-1-one], the IC50 is below 0.01 µM.
